Counter-ions that a name gives are not always drawn.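 Five compound concentrations were applied to cells in 96-well plates for 48 hours; endpoints were derived by simple linear interpolation of the resulting dose-response curve. GI50 = concentration required for 50% inhibition of growth.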 Activity calls are given as the source filed them. No stated cut-off is given here; in the data, active = GI50 up to about 1.1 µM and inactive = higher.
Legend:
Assay in all cases: NCI anticancer screen, dose series, 48 h
HCT-116 = tested on: HCT-116
TK-10 = tested on: TK-10
NCI/ADR-RES = tested on: NCI/ADR-RES
MCF7 = tested on: MCF7
HCT-15 = tested on: HCT-15
UACC-62 = tested on: UACC-62
HCC 2998 = tested on: HCC 2998
SR = tested on: SR
PC-3 = tested on: PC-3
CCRF-CEM = tested on: CCRF-CEM
HOP-92 = tested on: HOP-92
A498 = tested on: A498
MOLT-4 = tested on: MOLT-4
MDA-N = tested on: MDA-N
MDA-MB-231 = tested on: MDA-MB-231
SK-MEL-5 = tested on: SK-MEL-5
ACHN = tested on: ACHN
SK-MEL-2 = tested on: SK-MEL-2
BT-549 = tested on: BT-549
LOX IMVI = tested on: LOX IMVI
OVCAR-8 = tested on: OVCAR-8
COLO 205 = tested on: COLO 205
IGROV-1 = tested on: IGROV-1
HOP-62 = tested on: HOP-62
UO-31 = tested on: UO-31
T47D = tested on: T47D
OVCAR-4 = tested on: OVCAR-4
RXF 393 = tested on: RXF 393
UACC-257 = tested on: UACC-257
OVCAR-3 = tested on: OVCAR-3
Hs-578T = tested on: Hs-578T
M14 = tested on: M14
786-0 = tested on: 786-0
K562 = tested on: K562
EKVX = tested on: EKVX
NCI-H23 = tested on: NCI-H23
HT-29 = tested on: HT-29
NCI-H226 = tested on: NCI-H226
A549 = tested on: A549
SF-539 = tested on: SF-539
U-251 = tested on: U-251
RPMI-8226 = tested on: RPMI-8226
MDA-MB-435 = tested on: MDA-MB-435
SNB-19 = tested on: SNB-19
NCI-H460 = tested on: NCI-H460
SN12C = tested on: SN12C
SF-295 = tested on: SF-295
SW-620 = tested on: SW-620
NCI-H522 = tested on: NCI-H522
Malme-3M = tested on: Malme-3M
KM12 = tested on: KM12
SNB-75 = tested on: SNB-75
CAKI-1 = tested on: CAKI-1
SK-OV-3 = tested on: SK-OV-3
DU-145 = tested on: DU-145
OVCAR-5 = tested on: OVCAR-5
SK-MEL-28 = tested on: SK-MEL-28
SF-268 = tested on: SF-268
HL-60 = tested on: HL-60

Measured: GI50

CC/C(=C(\c1ccccc1)c1ccc(OCCN(C)C)cc1)c1ccccc1 [TAMOXIFEN CITRATE]
inactive: HCT-116 4.8 µM | TK-10 5.18 µM | NCI/ADR-RES 5.28 µM | MCF7 1.65 µM | UACC-62 5.26 µM | HCC 2998 3.81 µM | SR 4.86 µM | PC-3 4.18 µM | CCRF-CEM 4.75 µM | HOP-92 4.57 µM | A498 4.38 µM | MOLT-4 3.4 µM | MDA-N 4.68 µM | MDA-MB-231 4.97 µM | SK-MEL-5 4.17 µM | ACHN 6.1 µM | SK-MEL-2 5.45 µM | BT-549 6.07 µM | LOX IMVI 3.99 µM | OVCAR-8 6.32 µM | COLO 205 4.1 µM | IGROV-1 5.75 µM | HOP-62 5.12 µM | UO-31 4.14 µM | T47D 3.05 µM | OVCAR-4 5.6 µM | RXF 393 3.87 µM | UACC-257 4.81 µM | OVCAR-3 5 µM | Hs-578T 5.58 µM | M14 4.42 µM | 786-0 4.43 µM | K562 3.3 µM | EKVX 7.03 µM | NCI-H23 5.93 µM | HT-29 3.44 µM | NCI-H226 6.34 µM | A549 5.79 µM
4.67 µM: HCT-15

NC(=S)N1N=C(c2ccccc2O)CC1c1ccccc1 (stereo unspecified)
inactive: HCT-116 12.8 µM | SF-539 11.8 µM | U-251 16.8 µM | TK-10 20.1 µM | RPMI-8226 11.6 µM | NCI/ADR-RES 6.35 µM | MCF7 4.45 µM | MDA-MB-435 3.02 µM | UACC-62 11.6 µM | SNB-19 23.3 µM | NCI-H460 14 µM | SN12C 13.8 µM | SF-295 6.43 µM | SW-620 9.59 µM | HCC 2998 11.6 µM | NCI-H522 3.99 µM | PC-3 5.24 µM | CCRF-CEM 7.94 µM | Malme-3M 16.1 µM | HOP-92 17.1 µM | A498 11.9 µM | KM12 7.4 µM | MOLT-4 8.04 µM | MDA-N 2.83 µM | SK-MEL-5 10.2 µM | ACHN 23.3 µM | SK-MEL-2 5.25 µM | BT-549 20.8 µM | LOX IMVI 16.9 µM | OVCAR-8 25.5 µM | COLO 205 8.97 µM | IGROV-1 11.4 µM | HOP-62 4.95 µM | SNB-75 16.9 µM | UO-31 19.3 µM | T47D 17.6 µM | OVCAR-4 18.2 µM | CAKI-1 27.9 µM | RXF 393 12.4 µM | UACC-257 15.3 µM | OVCAR-3 10.5 µM | Hs-578T 20.7 µM | M14 11.3 µM | SK-OV-3 13.9 µM | DU-145 27 µM | OVCAR-5 17.9 µM | 786-0 21.1 µM | K562 3.85 µM | EKVX 20.4 µM | NCI-H23 18.5 µM | HT-29 11 µM | NCI-H226 15 µM | SK-MEL-28 18.5 µM | SF-268 20.8 µM | A549 16 µM | HL-60 3.69 µM
5.62 µM: HCT-15
